Results as given in PubChem BioAssay AID463204 (Broad Institute, 2010).
The source made the active and inactive calls.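 How the source made its calls: active means AC50 no more than ten times the top concentration tested, that is within one log above it; inconclusive means flat curve fit with activity between 30% and 70%, or invalid poor fit; inactive means AC50 beyond ten times the top tested dose.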

Test system: S. cerevisiae Mot1-301 ts growth rescue, BacTiter-Glo ATP luminescence
Assay: restored Mot1-301 yeast growth at 38.5C – whole organism, S. cerevisiae, Mot1-301 ts mutant, luminescence, dose retest, SUMOylation pathway inhibitor project, confirmation (AID 463204);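 further: growth at restrictive 38.5 degrees C of Mot1-301 OY566 strain; actives raise luminescence by restoring growth of the ts mutant at high temperature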

CN(C)c1ccc(NC(=O)CSc2nc(N)c(C(=O)Nc3ccc(N(C)C)cc3)s2)cc1
AC50: > 42 µM (inactive)

CCCc1cc(=O)oc2c3c(c4c(c12)OC(C)(C)C=C4)OC(C)C(C)C3O (stereo not drawn)
AC50: > 42 µM (inactive)

COc1ccccc1CNC(=O)CCC(=O)Nc1nnc(C(C)C)s1
AC50: > 42 µM (inactive)

COc1ccc(-c2cn(-c3ccc(C)cc3)c(=O)n2CC(=O)Nc2ccc(OC)c(OC)c2)cc1
AC50: > 42 µM (inactive)

O=C(Nc1ccc2c(c1)CCCN2C(=O)c1cccs1)c1cccc(F)c1
AC50: > 42 µM (inactive)

Cc1ccc(S(=O)(=O)CCC(=O)OCC(=O)N(C)C2CCS(=O)(=O)C2)cc1 (stereo not drawn)
AC50: > 42 µM (inactive)

CN1CCCCC1=NCCCn1cnc2c1c(=O)n(C)c(=O)n2C
AC50: > 42 µM (inactive)

O=C(Nc1ccc2[nH]c(=O)[nH]c2c1)c1c(F)c(F)c(F)c(F)c1F
AC50: > 42 µM (inactive)

COc1cccc(CNC(=O)CCCn2nc(C)c3c(C)n(-c4ccccc4)nc3c2=O)c1
AC50: > 42 µM (inactive)

Cc1ccc(S(=O)(=O)NCCS(=O)(=O)N2CCN(c3ccc(F)cc3)CC2)cc1
AC50: > 42 µM (inactive)

COc1cccc(C2/C(=C(/O)c3ccccc3)C(=O)C(=O)N2Cc2ccco2)c1 (stereo not drawn)
AC50: > 42 µM (inactive)

COc1ccc(CN(C)C(=O)c2sccc2-c2ccccc2)c(OC)c1
AC50: > 42 µM (inactive)

COc1cccc(/C=N/n2cnc3ccccc32)c1OC
AC50: > 42 µM (inactive)

O=c1c2ccccc2c2ccccc2c(=O)n1-c1ccccc1
AC50: > 42 µM (inactive)

O=C(CCC(F)(F)F)N1CCCC(CO)(CCc2ccccc2)C1 (stereo not drawn)
AC50: > 42 µM (inactive)

O=C1CSC(c2ccc(F)c(F)c2)N1c1ccccc1F (stereo not drawn)
AC50: > 42 µM (inactive)

O=C(COC(=O)c1ccc([N+](=O)[O-])s1)c1ccc[nH]1
AC50: 21 µM

CN1C(=O)C(O)(CC(=O)c2ccccc2O)c2cc(Br)ccc21 (stereo not drawn)
AC50: > 42 µM (inactive)

O=C(NCCc1cnccn1)C1CCC(=O)N(Cc2ccc(Cl)cc2)C1 (stereo not drawn)
AC50: > 42 µM (inactive)

CCN1CCCC1CNC(=O)Cn1cnc2ccc(S(=O)(=O)N3CCC(C)CC3)cc2c1=O (stereo not drawn)
AC50: > 42 µM (inactive)

CN1CCN(C(=O)CCN2C(=O)/C(=C/c3ccccc3Cl)SC2=S)CC1
AC50: > 42 µM (inactive)

CC(C)(C)n1cnc2cc(NC(=O)c3ccc(Cl)cc3)ccc21
AC50: > 42 µM (inactive)

CCOCCCNC(=O)C(c1ccc(OC)cc1)N(Cc1cccs1)C(=O)c1ccccn1 (stereo not drawn)
AC50: > 42 µM (inactive)

COc1ccc(S(=O)(=O)NCC(=O)N(CC(=O)NCc2ccco2)Cc2ccccc2)cc1
AC50: > 42 µM (inactive)

COc1ccccc1NC(=O)COC(=O)CC(C)(C)CC1=NS(=O)(=O)c2ccccc2N1
AC50: > 42 µM (inactive)

COc1cc2c(cc1OC)C(c1ccccc1[N+](=O)[O-])N(C(C)=O)CC2 (stereo not drawn)
AC50: > 42 µM (inactive)

NNC(=O)c1oc2nc(-c3ccccc3)cc(-c3ccccc3)c2c1N
AC50: > 42 µM (inactive)

COC(=O)C1CCN(S(=O)(=O)Cc2ccccc2)CC1
AC50: > 42 µM (inactive)

Cc1ccc(C(C(=O)NC2CCCCC2)N(CCC(C)C)C(=O)CNC(=O)c2ccco2)o1 (stereo not drawn)
AC50: > 42 µM (inactive)

OC[C@@H](O)CCl
AC50: > 42 µM (inactive)

Cc1cccc(N2CCN(C(=O)CN3C(=O)NC(C)(C)C3=O)CC2)c1C
AC50: > 42 µM (inactive)

COc1cc(CNCCN2CCOCC2)ccc1OCc1ccccc1Cl
AC50: > 42 µM (inactive)

CC(=O)Oc1cccc(N2C(=O)c3ccc(C(=O)Nc4c[nH]c(=O)[nH]c4=O)cc3C2=O)c1
AC50: > 42 µM (inactive)

CCNC(=O)COc1ccc(S(=O)(=O)Nc2ccccc2)cc1
AC50: > 21 µM (inactive)

Cc1cc(NC(=O)CC2CCCC2)ccc1Br
AC50: > 42 µM (inactive)

CC1CCN(CCCCOc2cccc(Br)c2)CC1
AC50: > 42 µM (inactive)

CCn1cc(C(=O)N(C)c2ccc(OC)cc2OC)c2cc(OC)c(OC)cc2c1=O
AC50: > 42 µM (inactive)

Cc1nnc(NC(=O)c2cccc(S(=O)(=O)N3CCCC3)c2)s1
AC50: > 42 µM (inactive)
